Values after ≈ are worked out from the molar mass of the structure shown.
Legend:
FKBP12 [1] = molecular target: T1, FKBP12 (Aspergillus fumigatus, UniProt Q4WLV6); test: BLI, compound-mediated ternary complex formation, […] compound; assay type: binding
T1 construct: gene fpr1A; biotinylated (Avi-tagged) FKBP12; with CnA-CnB-calmodulin

FKBP12 [2] = molecular target: T2, FKBP12 (Candida albicans, UniProt C4YFI3+C4YS24+P28870); test: as above; assay type: binding
T2 construct: gene RBP1; biotinylated (Avi-tagged) FKBP12; with CnA-CnB-calmodulin

[3] = system: T3, Cryptococcus neoformans (H99); test: microbe, parasite or virus in culture; set-up: CLSI M27-A3 broth microdilution in RPMI 1640 at 37 C, growth inhibition of C. neoformans (MIC); conditions: Cryptococcus neoformans, read-out: MIC (μg/mL) against: / Cryptococcus neoformans (H99)^a
T3 construct: H99
Protocol: In vitro antifungal activities of FK506, FK520, and analogs were assessed in RPMI 1640 (Sigma-Aldrich) for all strains tested. MICs/minimum effective concentrations (MECs) for each drug were measured using modified Clinical and Laboratory Standards Institute (CLSI) M38-A2 and M27-A3 standard in vitro antifungal susceptibility protocols. Broth microdilution assays for MIC/MEC assessment were performed as described previously ([33]). All antifungal assays with C. neoformans were performed at 37°C. Antifungal susceptibility testing for C. albicans was performed in the presence of a uniform 1 μg/mL concentration of fluconazole to sensitize the organism to calcineurin inhibition. MICs/minimum effective concentrations (MECs) were determined for each of the novel analogs against the three major human fungal pathogens, A. fumigatus, C. neoformans, and C. albicans. […] Thus, analogs of FK506 and FK520 can tolerate up to 100-fold reduction in antifungal activity and still be considered for in vivo testing. For C. neoformans, MICs were the most uniform and ranged from 0.2 to 2 μg/mL, which is between 4- and 40-fold reduced for antifungal activity. C. albicans MICs ranged from 0.2 to 6.25 μg/mL, which is between 10- and 312.5-fold reduced for activity. Despite being one of the most difficult to treat fungal infections, all six analogs were active against A. fumigatus with MECs ranging from 1 to 2 μg/mL or a 62.5- to 125-fold reduction in activity.

T1 sequence (Q4WLV6 whole entry): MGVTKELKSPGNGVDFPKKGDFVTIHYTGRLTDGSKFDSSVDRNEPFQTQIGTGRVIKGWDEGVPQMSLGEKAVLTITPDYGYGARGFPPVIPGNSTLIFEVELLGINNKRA
T1 sequence (Q4WUR1 whole entry partner): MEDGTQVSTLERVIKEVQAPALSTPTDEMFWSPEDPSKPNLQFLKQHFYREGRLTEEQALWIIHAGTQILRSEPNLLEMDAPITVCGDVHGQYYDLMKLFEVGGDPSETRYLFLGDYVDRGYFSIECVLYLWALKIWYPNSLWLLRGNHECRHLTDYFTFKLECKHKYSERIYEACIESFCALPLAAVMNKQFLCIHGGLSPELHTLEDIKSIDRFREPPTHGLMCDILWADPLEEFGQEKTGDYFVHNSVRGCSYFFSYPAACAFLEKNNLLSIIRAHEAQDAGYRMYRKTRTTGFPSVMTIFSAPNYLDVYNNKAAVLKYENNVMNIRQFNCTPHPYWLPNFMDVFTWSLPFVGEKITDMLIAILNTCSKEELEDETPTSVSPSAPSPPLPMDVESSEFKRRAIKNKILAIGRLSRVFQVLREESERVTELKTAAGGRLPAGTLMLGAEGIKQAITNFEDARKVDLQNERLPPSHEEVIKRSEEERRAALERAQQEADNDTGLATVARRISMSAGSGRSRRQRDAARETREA
T2 sequence (P28870 whole entry): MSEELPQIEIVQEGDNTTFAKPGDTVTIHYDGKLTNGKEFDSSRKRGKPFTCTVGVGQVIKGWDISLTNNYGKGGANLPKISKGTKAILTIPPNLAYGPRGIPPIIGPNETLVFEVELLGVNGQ
T2 sequence (C4YFI3 54-445): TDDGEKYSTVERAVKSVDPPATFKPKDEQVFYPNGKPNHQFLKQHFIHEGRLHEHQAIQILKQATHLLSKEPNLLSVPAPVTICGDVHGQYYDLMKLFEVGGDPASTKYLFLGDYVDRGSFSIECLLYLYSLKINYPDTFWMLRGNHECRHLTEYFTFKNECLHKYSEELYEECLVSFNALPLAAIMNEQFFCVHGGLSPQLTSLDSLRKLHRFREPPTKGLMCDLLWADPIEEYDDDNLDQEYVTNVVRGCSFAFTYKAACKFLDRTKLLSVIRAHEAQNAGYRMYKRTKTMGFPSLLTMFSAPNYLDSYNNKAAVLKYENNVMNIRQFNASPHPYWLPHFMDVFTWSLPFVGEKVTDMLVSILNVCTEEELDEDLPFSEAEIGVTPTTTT
T2 sequence (C4YS24 1-173): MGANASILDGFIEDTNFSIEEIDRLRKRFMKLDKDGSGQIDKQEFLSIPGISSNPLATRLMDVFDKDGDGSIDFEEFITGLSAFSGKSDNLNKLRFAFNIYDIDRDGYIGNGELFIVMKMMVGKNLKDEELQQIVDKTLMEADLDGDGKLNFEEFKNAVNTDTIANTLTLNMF
T2 sequence (P23286 whole entry partner): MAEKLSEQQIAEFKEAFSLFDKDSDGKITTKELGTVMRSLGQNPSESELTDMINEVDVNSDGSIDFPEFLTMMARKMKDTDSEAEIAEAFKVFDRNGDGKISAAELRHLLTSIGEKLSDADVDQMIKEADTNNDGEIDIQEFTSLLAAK

C=CC[C@@H]1/C=C(\C)C[C@H](C)C[C@H](OC)[C@H]2O[C@@](O)(C(=O)C(=O)N3CCCC[C@H]3C(=O)O[C@H](/C(C)=C/[C@@H]3CC[C@@H](O)[C@H](OC)C3)[C@H](C)[C@@H](O)C/C1=N/NC(=O)CC)[C@H](C)C[C@@H]2OC [JH-FK-02]
BLI, compound-mediated ternary complex formation, 10 μM compound (FKBP12 [1]): target complexes form in the presence of the analogs with affinities similar to those of the parent compounds | BLI, compound-mediated ternary complex formation, 10 μM compound (FKBP12 [2]): target complexes form in the presence of the analogs with affinities similar to those of the parent compounds | MIC [3]: 2 µg/mL (≈ 2.29 µM)
